Experimental data from publication PMC8125995, “In Vitro Antiplasmodial and Cytotoxic Activities of Compounds from the Roots of Eriosema montanum Baker f. (Fabaceae)” (Molecules, 2021).
Converted amounts (≈) assume the structure as drawn. Where two headings read alike, the source gives them in different places.

Assays:
[1] = tested on: 3D7 strain of Plasmodium falciparum; test: In vitro antiplasmodial activity (SYBR Green, 48 h); assay type: cell-based; conditions: read-out: Antiplasmodial Activity IC50
Description: Continuous in vitro cultures of asexual erythrocyte stages of P. falciparum, chloroquine-sensitive 3D7 strain was maintained according to the procedure of Trager and Jensen. Strains were obtained from ATCC, Bei Resources. The host cells were human red blood cells (A+). […] Compound stock solutions were prepared in DMSO at 10 mg/mL (for an extract) and 1 mg/mL (for an isolated compound). Then, the solution is directly diluted in the medium; each test sample was applied in a series of eight 2-fold dilutions in a 96-well plate, starting with 100 µg/mL and 10 µg/mL for the crude extract and purified compounds, respectively, and tested in triplicate. The effect of compounds on the parasite growth was estimated, after 48 h incubation, by using the SYBR Green, a DNA intercalating compound. Artemisinin (Sigma-Aldrich, Machelen, Belgium), at an initial concentration of 100 ng/mL, was used as positive control in all experiments. The half-maximal inhibitory concentration (IC50) values were calculated from graphs.

[2] = Cytotoxicity, Cell Titer-Glo Luminescent Cell Viability Assay; assay type: cell-based; conditions: human
Description: (§1) The cytotoxic effect of the crude extract and compounds thereof on THP-1 human acute leukemia cell line was carried using the Cell Titer-Glo Luminescent Cell Viability Assay (Promega). […] Cells were then incubated in the presence or absence of tested compounds for 3 days at 37 °C in a humidified 5% CO2 atmosphere in a 96-wells plate at a cell density of two thousand cells/well. The cell viability was then evaluated using Cell Titer-Glo Luminescent Cell Viability Assay (Promega) according to the manufacturer’s instructions.

different cell lines = tested on: different cell lines; design: method as in doi:10.1016/j.phytol.2020.10.005; conditions: cited from earlier work
[3] = tested on: THP-1 human acute leukemia cell line; test: Cytotoxicity, Cell Titer-Glo Luminescent Cell Viability Assay; assay type: cell-based; conditions: 3 days
Description: as §1

[4] = design: method as in PMID 21872416; conditions: antiplasmodial activity; read-out: reported IC50; cited from earlier work
[5] = chloroquine-sensitive 3D7 strain, 48 h incubation, SYBR Green, mean ± S.D. of two, three or four independent experiments

SMILES | IC50 [1, 5] [µg/mL] | CC50 at 3 days ([2]; Cytotoxic Activity CC50) [µg/mL] | further results
C[C@@H]1CC[C@H]2[C@@H](C)C(=O)O[C@@H]3O[C@@]4(C)CC[C@@H]1[C@]32OO4 [Artemisinin, reference compound] | 0.0067 ± 0.003 (≈ 0.0237 µM) |  | 
COc1cc(OC2OC(CO)C(O)C(O)C2O)cc2occ(-c3ccc(O)cc3)c(=O)c12 (stereo not shown) [Compound 2, 7-O-glucopyranosyl-isoprunetin] | 0.113 ± 0.074 (≈ 0.253 µM) | 322 ± 20.6 (≈ 721 µM) | 
O=c1c(-c2ccc(O)cc2)coc2cc(O[C@@H]3O[C@H](CO)[C@@H](O)[C@H](O)[C@H]3O)cc(O)c12 [Compound 3, genistin] | 7.87 ± 1.72 (≈ 18.2 µM) | 169 (≈ 390 µM) | Cytotoxic Activity CC50 [3]: 196.3 ± 44.5 µg/mL
O=C(O)CC(=O)OC[C@H]1O[C@@H](Oc2cc(O)c3c(=O)c(-c4ccc(O)cc4)coc3c2)[C@H](O)[C@@H](O)[C@@H]1O [Compound 4, malonyl genistin] | > 10 | 182 (≈ 351 µM) | Cytotoxic Activity CC50 [3]: 223.3 ± 58.6 µg/mL
O=c1c(-c2ccc(O)cc2)coc2cc(O)cc(O)c12 [Compound 7, genistein] |  |  | IC50 ([1]; 3D7, 48 h): 7.74 ± 0.802 µg/mL (≈ 28.6 µM); CC50 at 3 days ([2]; THP-1 cells, 3 days incubation, read-out: Cytotoxic Activity CC50): 116 µg/mL (≈ 430 µM)
O=C(O)CC(O)C(=O)O (stereo not shown) [Malic acid, malic acid] |  |  | IC50 [4]: > 10 µM

Further lines, with some results ahead:

IC50 [1, 5] [µg/mL] | SMILES | CC50 at 3 days ([2]; Cytotoxic Activity CC50) [µg/mL] | further results
0.057 ± 0.031 (≈ 0.237 µM) | O=C(O)C[C@](O)(Cc1ccc(O)cc1)C(=O)O [Compound 1, eucomic acid] | 375 ± 97.3 (≈ 1560 µM) | CC50 (different cell lines): > 100 µM
0.042 (≈ 0.148 µM) | COc1cc(O)cc2occ(-c3ccc(O)cc3)c(=O)c12 [Compound 5, isoprunetin] | 221 ± 33.3 (≈ 778 µM) | 
0.121 ± 0.048 (≈ 0.423 µM) | O=c1c(-c2ccc(O)c(O)c2)coc2cc(O)cc(O)c12 [Compound 6, Isoluteolin] | 243 ± 73 (≈ 848 µM) | 
